Assay results taken from EP0104572A1, “Benzyl ethers of phenol Mannich bases, process for their production, their use and pharmaceutical preparations based on these compounds, intermediates and process for their production” (priority 1982, dated 1984).
Read-outs that look alike come from different tables or passages of the source.

How the values were obtained:
Serum-Lipoproteine = assay: Change of serum and lipoprotein-fraction cholesterol in rats after 7 days of oral treatment (ultracentrifuge fractionation, CHOD-PAP cholesterol); format: in vivo, männlichen Wistar-Ratten; conditions: for change in vivo at 100 mg/kg: Rattus norvegicus, 168 h, 100 mg/kg / Tag, oral (gavage), 7 days, male Wistar rats
Description: (§1) Die Wirkung der angeführten Verbindungen auf die Serum- Lipoproteine wurde an männlichen Wistar-Ratten untersucht, die 7 Tage per Schlundsonde mit den angeführten in Polyäthylenglykol 400 suspendierten Verbindungen behandelt wurden. Außerdem wurde eine Kontrollgruppe, die nur das Lösungsmittel Polyäthylenglykol 400 erhielt, mitgeführt, sowie bei den meisten Versuchen eine Ratten-Gruppe mit dem Standardhypolipidämikum Clofibrat. Pro Gruppe wurden in der Regel 10 Tiere eingesetzt, denen am Ende der Behandlung das Blut nach leichter Äthernarkose aus dem Orbitalplexus entnommen wurde. Aus dem gewonnenen Ratten-Serum wurden die Serum- Lipoproteine in der präparativen Ultrazentrifuge in folgende Dichteklassen getrennt: VLDL < 1,006; LDL 1,006 bis 1,04; HDL 1,04 bis 1,21
Da nämlich im Gegensatz zum Menschen die Serumlipoproteine der Ratte etwa 4/5 HDL-Cholesterin und nur 1/5 LDL-Cholesterin enthalten und nur sehr geringe Mengen von VLDL (beim Menschen umgekehrt etwa 2/3 LDL und VLDL und nur 1/3 bis 1/4 HDL), macht die Beurteilung einer hypolipidämischen Wir- .kung an der Ratte unbedingt eine Fraktionierung des Ratten-serums in Lipoproteinklassen erforderlich. Eine bloße Erniedrigung des Serum-Total-cholesteringehaltes an der Ratte würde nämlich nur die unerwünschte Erniedrigung der bei der Ratte vorwiegenden antiatherogenen HDL-Klasse anzeigen. Eine erwünschte Erniedrigung von LDL bei gleichzeitiger erwünschter Vermehrung von HDL hätte aber keine (wesentliche) Auswirkung auf den Totalcholesteringehalt des Ratten-Serums.
Aus den in der Ultrazentrifuge isolierten LipoproteinFraktionen wurde das darin enthaltene Cholesterin vollenzymatisch nach der CHOD-PAP-Methode mittels der Testkombination von Boehringer-Mannheim bestimmt und die Werte in µg/ml Serum umgerechnet. In der angeführten Tabelle ist die Veränderung des Lipoprotein-Cholesterins in der behandelten Gruppe gegenüber einer unter gleichen Bedingungen mitgeführten Kontrollgruppe angegeben.
Veränderung in % der Lipoproteine im Ratten-Serum nach siebentägiger oraler Applikation der Verbindungen

[1] = Change of relative liver weight and liver findings in the 7-day oral rat study; format: in vivo, männlichen Wistar-Ratten; conditions: rat, in vivo
Description: Die erfindungsgemäßen Verbindungen haben wertvolle therapeutische Eigenschaften. So erniedrigen sie vor allem die Konzentration von LDL und VLDL, die HDL-Fraktion aber kaum, in vielen Fällen wird diese Fraktion sogar vermehrt. Diese Verbindungen stellen daher einen wesentlichen Fortschritt gegenüber der Vergleichsverbindung Clofibrat dar, wie aus .den nachfolgend beschriebenen Daten ersichtlich ist. Sie können daher zur Prophylaxe und Regression von arteriosklerotischen Veränderungen herangezogen werden, indem sie einen kausalen Risikofaktor ausschalten. Hierzu zählen nicht nur die primären Hyperlidämien, sondern auch gewisse sekundäre Hyperlipidämien wie sie z.B. beim Diabetes vorkommen. […] Die mit einer hypolipidämischen Wirkung verbundene unerwünschte Beeinflussung der Leber zeigt sich auch in sehr starkem Maße bei der in J.Med.Chem. 18 (1975) S. 833-836 beschriebenen Vergleichsverbindung 1-(4-Methylbenzyl)-imidazol. […] Die erfindungsgemäßen Verbindungen zeigen dieses unerwünschte Verhalten nicht.
as §1

## CCOC(=O)C(C)(C)Oc1ccc(Cl)cc1 [Clofibrat, reference compound]
Serum-Lipoproteine; read-out: Cholesterolveränderung in %, bezogen auf die Kontrollgruppe im Serum
  change in vivo at 100 mg/kg: -29%
Serum-Lipoproteine; read-out: Cholesterolveränderung in %, bezogen auf die Kontrollgruppe in den Serum-Lipoprotein-Fraktionen HDL
  change in vivo at 100 mg/kg: -34%
Serum-Lipoproteine; read-out: Cholesterolveränderung in %, bezogen auf die Kontrollgruppe in den Serum-Lipoprotein-Fraktionen LDL
  change in vivo at 100 mg/kg: -18%
Serum-Lipoproteine; read-out: Cholesterolveränderung in %, bezogen auf die Kontrollgruppe in den Serum-Lipoprotein-Fraktionen VLDL
  change in vivo at 100 mg/kg: -48%
Serum-Lipoproteine; statement in words summarising the table, rat serum, 7 days oral
  Wirkung auf die Lipoproteinfraktionen (VLDL, LDL, HDL): stärkere Verminderung der HDL- als der LDL-Fraktion
[1]
  relatives Lebergewicht: starken Erhöhung des relativen Lebergewichts
